Measured values: BigSolDB 2.1

COC(=O)c1cc(OC)c2c(c1-c1c(C(=O)OC)cc(OC)c3c1OCO3)OCO2
solubility (mole fraction)
Settings | 293.15 K | 303.15 K | 313.15 K | 323.15 K | 333.15 K
in acetone | 0.00457 | 0.0068 | 0.0104 | 0.0174 | –
in acetonitrile | 0.00542 | 0.00808 | 0.0123 | 0.0189 | –
in ethanol | 6.48e-05 | 0.000114 | 0.000277 | 0.000523 | 0.00102
in ethyl acetate | 0.00302 | 0.0044 | 0.00659 | 0.0103 | –
in isopropanol | 6.44e-05 | 0.00011 | 0.000223 | 0.000484 | 0.00107
in methanol | 7.18e-05 | 0.000121 | 0.000275 | 0.000459 | –
in methyl acetate | 0.00549 | 0.00775 | 0.0124 | 0.0193 | –
in n-butanol | 5.71e-05 | 0.000114 | 0.000214 | 0.000511 | 0.00104
in n-butyl acetate | 0.00137 | 0.00199 | 0.00318 | 0.00554 | 0.00831
in n-pentanol | 6.14e-05 | 0.000114 | 0.000199 | 0.000388 | 0.00104
in n-pentyl acetate | 0.0011 | 0.00154 | 0.00244 | 0.00387 | 0.00649
in n-propanol | 5.78e-05 | 0.000104 | 0.000211 | 0.000479 | 0.00107
in n-propyl acetate | 0.00171 | 0.00279 | 0.00423 | 0.00659 | 0.0117
